Experimental data: patent US20260167622A1, “PAN-KRAS DEGRADING AGENT, AND PREPARATION METHOD THEREFOR AND USE THEREOF” (LEADINGTAC PHARMACEUTICAL (SHAOXING) CO., LTD., priority 2022, published 2026)

What was measured:
[1] = test system: KRAS G12D mutant human metastatic pancreatic cancer cell AsPc-1; assay: 3D cell proliferation inhibition assay, AsPc-1; assay type: cell-based; conditions: ASPC1, 168 h, 3D culture, 7 days, CTG
Method in brief: (§1)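 Cells seeded in low-adsorption plates at 5×10^2 cells/well (MKN1 1×10^3) with compounds at final 10000–0.026 nM, 0.2% DMSO, 3D culture 7 days at 37 °C. Viability by CellTiter-Glo luminescence; inhibition normalised to DMSO and medium-only controls, IC50 from nonlinear log-concentration fit.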

[2] = test system: KRAS G12D mutant human lung cancer cell A427; assay: 3D cell proliferation inhibition assay, A427; assay type: cell-based; conditions: A-427, 168 h, 3D culture, 7 days, CTG
Method in brief: as §1

[3] = test system: KRAS G12V mutant human colorectal cancer cell SW620; assay: 3D cell proliferation inhibition assay, SW620; assay type: cell-based; conditions: SW-620, 168 h, 3D culture, 7 days, CTG
Method in brief: as §1

Human KRAS G12V = target: T1, Human KRAS G12V (Homo sapiens, UniProt P01116, G12V); assay: KRAS-G12V/GTP binding assay (HTRF kit); conditions: 25° C., 1 h
T1 construct: purchased PerkinElmer
Experimental: Test Example 2: KRAS G12V Binding Assay
In this method, the inhibitory effects of the compounds on the binding of KRAS G12V to GTP were assayed by a homogeneous time-resolved fluorescence (HTRF) technique using a KRAS-G12V/GTP binding assay kit (PerkinElmer).
The experimental procedures were as follows (refer to the kit instructions for detailed test methods): the compounds of the present disclosure were each firstly dissolved in DMSO at a concentration of 20 mM, and then diluted in an equal gradient with a buffer in the kit, so that the final concentrations of the test compounds in the reaction system were in a range of 0.02-5000 nM, and the final concentration of DMSO was 0.5%. 5 μL of each compound was incubated with 5 μL of 1× Human KRAS G12V 6His-tagged (PerkinElmer), 5 µL of 1×6His Eu Cryptate Antibody (PerkinElmer), and 5 μL of 1×GTP Red reagent (PerkinElmer) in a 384-well plate (Greiner) at 25° C. for 1 h. After the incubation was completed, the fluorescence intensity of each well was measured at the excitation wavelength of 337 nm and the emission wavelengths of 620 nm and 665 nm with an EnVision microplate reader (PerkinElmer) in the HTRF mode, and Ratio values were calculated using the formula: Ratio=(665 nm/620 nm)×10^4. The inhibition rates of the compounds at each concentration were calculated by comparing the fluorescence intensity ratio with that of the control group. Then non-linear curve fittings for logarithmic concentration-inhibition rate were performed using the GraphPad Prism 8 analysis software, and the IC50 values of the compounds were obtained (Table 3).

T1 sequence (P01116 1-188 isoform P01116-2 G12V): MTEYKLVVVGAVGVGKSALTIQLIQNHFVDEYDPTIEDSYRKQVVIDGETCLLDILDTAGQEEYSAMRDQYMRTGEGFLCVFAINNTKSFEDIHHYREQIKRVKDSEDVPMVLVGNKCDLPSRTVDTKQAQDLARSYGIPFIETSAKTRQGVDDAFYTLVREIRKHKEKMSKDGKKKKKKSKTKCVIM

SMILES | IC50 [1] | IC50 [2] | IC50 [3] | IC50 (Human KRAS G12V)
C#Cc1c(F)ccc2cc(O)cc(-c3ncc4c(N5CCC[C@@](C)(O)C5)nc(OCC5(CN6CCN(CC7CCC8(CC7)CCN(C(=O)c7ccc(C)c(N9CCC(=O)NC9=O)c7)CC8)CC6)CC5)nc4c3F)c12 [Example 6, (R)-1-(5-(9-((4-((1-(((7-(8-ethynyl-7-fluoro-3-hydroxynaphthalen-1-yl)-8-fluoro-4-(3-hydroxy-3-methylpiperidin-1-yl)pyrido[4,3-d]pyrimidin-2-yl)oxy)methyl)cyclopropyl)methyl)piperazin-1-yl)methyl)-3-azaspiro[5.5]undecane-3-carbonyl)-2-methylphenyl)dihydropyrimidine-2,4(1H,3H)-dione] | ≤ 0.05 µM | ≤ 0.05 µM | 0.00128 µM | ≤ 0.5 µM
C#Cc1c(F)ccc2cc(O)cc(-c3ncc4c(N5CCC[C@@](C)(O)C5)nc(OCC5(CN6CCN(CC7CCC8(CC7)CCN(C(=O)c7ccc(OC)c(N9CCC(=O)NC9=O)c7)CC8)CC6)CC5)nc4c3F)c12 [Example 7, (R)-1-(5-(9-((4-((1-(((7-(8-ethynyl-7-fluoro-3-hydroxynaphthalen-1-yl)-8-fluoro-4-(3-hydroxy-3-methylpiperidin-1-yl)pyrido[4,3-d]pyrimidin-2-yl)oxy)methyl)cyclopropyl)methyl)piperazin-1-yl)methyl)-3-azaspiro[5.5]undecane-3-carbonyl)-2-methoxyphenyl)dihydropyrimidine-2,4(1H,3H)-dione] | ≤ 0.05 µM | ≤ 0.05 µM | 0.00181 µM | ≤ 0.5 µM
C#Cc1c(F)ccc2cc(O)cc(-c3ncc4c(N5CCC[C@@](C)(O)C5)nc(OCC5(CN6CCN(CC7CCC8(CC7)CCN(C(=O)c7ccc(Cl)c(N9CCC(=O)NC9=O)c7)CC8)CC6)CC5)nc4c3F)c12 [Example 1, (R)-1-(2-chloro-5-(9-((4-((1-(((7-(8-ethynyl-7-fluoro-3-hydroxynaphthalen-1-yl)-8-fluoro-4-(3-hydroxy-3-methylpiperidin-1-yl)pyrido[4,3-d]pyrimidin-2-yl)oxy)methyl)cyclopropyl)methyl)piperazin-1-yl)methyl)-3-azaspiro[5.5]undecane-3-carbonyl)phenyl)dihydropyrimidine-2,4(1H,3H)-dione] | ≤ 0.05 µM | ≤ 0.05 µM | 0.00141 µM | ≤ 0.5 µM
CCc1cccc2cc(O)cc(-c3ncc4c(N5CCC[C@@](C)(O)C5)nc(OCC5(CN6CCN(CC7CCC8(CC7)CCN(C(=O)c7ccc(Cl)c(N9CCC(=O)NC9=O)c7)CC8)CC6)CC5)nc4c3F)c12 [Example 3, (R)-1-(2-chloro-5-(9-((4-((1-(((7-(8-ethyl-3-hydroxynaphthalen-1-yl)-8-fluoro-4-(3-hydroxy-3-methylpiperidin-1-yl)pyrido[4,3-d]pyrimidin-2-yl)oxy)methyl)cyclopropyl)methyl)piperazin-1-yl)methyl)-3-azaspiro[5.5]undecane-3-carbonyl)phenyl)dihydropyrimidine-2,4(1H,3H)-dione] | ≤ 0.05 µM | ≤ 0.05 µM | 0.00252 µM | ≤ 0.5 µM
C#Cc1cccc2cc(O)cc(-c3ncc4c(N5CCC[C@@](C)(O)C5)nc(OCC5(CN6CCN(CC7CCC8(CC7)CCN(C(=O)c7ccc(Cl)c(N9CCC(=O)NC9=O)c7)CC8)CC6)CC5)nc4c3F)c12 [Example 11, (R)-1-(2-chloro-5-(9-((4-((1-(((7-(8-ethynyl-3-hydroxynaphthalen-1-yl)-8-fluoro-4-(3-hydroxy-3-methylpiperidin-1-yl)pyrido[4,3-d]pyrimidin-2-yl)oxy)methyl)cyclopropyl)methyl)piperazin-1-yl)methyl)-3-azaspiro[5.5]undecane-3-carbonyl)phenyl)dihydropyrimidine-2,4(1H,3H)-dione] | ≤ 0.05 µM | 0.05 to 0.1 µM | 0.00543 µM | 0.5 to 1 µM
CCc1c(F)ccc2cc(O)cc(-c3ncc4c(N5CCC[C@@](C)(O)C5)nc(OCC5(CN6CCN(CC7CCC8(CC7)CCN(C(=O)c7ccc(Cl)c(N9CCC(=O)NC9=O)c7)CC8)CC6)CC5)nc4c3F)c12 [Example 2, (R)-1-(2-chloro-5-(9-((4-((1-(((7-(8-ethyl-7-fluoro-3-hydroxynaphthalen-1-yl)-8-fluoro-4-(3-hydroxy-3-methylpiperidin-1-yl)pyrido[4,3-d]pyrimidin-2-yl)oxy)methyl)cyclopropyl)methyl)piperazin-1-yl)methyl)-3-azaspiro[5.5]undecane-3-carbonyl)phenyl)dihydropyrimidine-2,4(1H,3H)-dione] | ≤ 0.05 µM | ≤ 0.05 µM | 0.00185 µM | ≤ 0.5 µM
